The subject of one test is prostate cancer (PC3). Kind of test: MTT assay, prostate cancer (PC3). It counts as cell-based. On the procedure:
(§1) Breast cancer cell lines (MCF7), osteosarcoma (MG63), breast ductal carcinoma (T47D), leukemia (U937), as well as HeLa, PC3, and healthy pulmonary fibroblast were supplied by the tissue culture laboratory at Vacsera, Egypt. The culturing procedure was maintained sterile, utilizing a laminar airflow cabinet. The cells were cultured in Roswell Park Memorial Institute medium (RPMI 1640). The medium was provided with antibiotics (streptomycin and penicillin) as well as antifungal agents (amphotericin B) and L-glutamine. It was also supplemented with 10% heat-inactivated fetal bovine serum.
(§2) Cell viability was measured using a 3-(4,5-dimethylthiazol-2-yl)-2,5-diphenyl-2H-tetrazolium bromide (MTT) assay. The principle of the MTT assay is that through mitochondrial reduction, purple-colored crystals are produced from the yellowish MTT [80]. […]
(§3) Using a growth medium, serial dilutions of the dimethyl sulfoxide (DMSO)-solubilized extract were produced at concentrations of 31.25, 62.5, 125, 250, 500, and 1000 µg/mL [80]. […] A microplate reader was used to measure the optical density of the formazan solution at 560 nm, with values corrected using a background reference λ of 620 nm. […]
(§4) The IC50 profiles of methanol extract of T. purpurea subsp. apollinea and a positive control for cancer and healthy cell lines were determined with GraphPad Prism version 7 (GraphPad Software Inc., San Diego, CA, USA). […]

The test system of the next test is MCF7. Kind of test: Light microscopy of treated cells, MCF7. It is filed as cell-based. The settings on record: MCF7, 250 µg/mL (Figure 8). From the text: (§5) Morphologies of cells treated with the various methanol T. purpurea subsp. apollinea extract concentrations were investigated under light microscopy at 10× objective lens, total magnification = 100×.
The subject of a further test is T47D. Kind of test: Light microscopy of treated cells, T47D. It counts as cell-based. The settings on record: 250 µg/mL (Figure 8).
Text: as §5

Test [1] has as its system breast ductal carcinoma (T47D). Kind of test: MTT assay, breast ductal carcinoma (T47D). It is filed as cell-based. On the procedure:
as §1, §2, §3, §4
On the technique in general: Tetrazolium dyes change colour on reduction, which living cells bring about.

For another test, the system named is HeLa. Put plainly: Light microscopy of treated cells, HeLa. The settings on record: 250 µg/mL (Figure 8). It is filed as cell-based.
Text: as §5

The subject of the next test is leukemia (U937). Kind of test: MTT assay, leukemia (U937). It counts as cell-based. On the procedure: as §1, §2, §3, §4
A further test deals with PC3. Kind of test: Light microscopy of treated cells, PC3. It counts as cell-based. The settings on record: PC3, 250 µg/mL (Figure 8).
Text: as §5

In test [2] the test system is normal human fetal lung fibroblast (WI38). Kind of test: MTT assay, normal human fetal lung fibroblast (WI38). It counts as cell-based. The settings on record: WI-38, WI38 normal cells, 24 h. On the procedure: as §1, §2, §3, §4
A further test relates to MG63. Put plainly: Light microscopy of treated cells, MG63. It counts as cell-based. To be noted: MG63, 250 µg/mL (Figure 8).
Text: as §5

The subject of another test is osteosarcoma (MG63). Put plainly: MTT assay, osteosarcoma (MG63). It is filed as cell-based. On the procedure: as §1, §2, §3, §4
In a further test the test system is breast cancer (MCF7). Kind of test: MTT assay, breast cancer (MCF7). It counts as cell-based. On the procedure: as §1, §2, §3, §4
The subject of a further test is cervical cancer (HeLa). Put plainly: MTT assay, cervical cancer (HeLa). It counts as cell-based. On the procedure:
as §1, §2, §3, §4

The nature of test [3]: DPPH radical scavenging assay. It counts as biochemical. On the procedure: Each methanolic extract concentration (1 mL) was added to 3 mL of 0.1 mM DPPH solubilized in methanol, followed by shaking and placing it into a dark chamber for 30 min. When DPPH reacts with an H-donating antioxidant, it is scavenged, thereby resulting in a decrease in absorbance. The optical density of each concentration was measured at 517 nm in a UV-Vis spectrophotometer. Ascorbic acid was used as an antioxidant standard. All the values were measured in triplicate.
(In general: Loss of DPPH colour is used to gauge radical scavenging.)

A short description of test [4]: ABTS radical scavenging assay. It counts as biochemical. On the procedure: Distilled water was used to bring up a 50-mL volumetric flask to mark after dissolving 192 mg of 2,2′-azino-bis(3-ethylbenzothiazoline-6-sulfonic acid) (ABTS) in a small volume of water and transferring it to the flask, followed by addition of 1 mL of this solution to 17 μL 0.14 M K2S2O8, and incubation in darkness for 24 h. To prepare the final ABTS dilution for the T. purpurea subsp. apollinea extract, 1 mL of reaction mixture was added to 49 mL of methanol. Then, 0.190 mL of newly made ABTS solution was mixed with 0.010 mL of plant extract in a 96-well plate and kept in the dark for 30 min. Thereafter, a decrease in ABTS OD was read at 734 nm in a FluoStar Omega microplate reader. Trolox was used as an antioxidant standard. All the values were measured in triplicate.

Values after ≈ are worked out from the molar mass of the structure shown.

As usually defined, the IC50 is the point on the concentration scale where inhibition reaches its midpoint. Low readings indicate greater potency in that assay, high ones weaker potency in that assay.

Take `COc1cccc2c1C(=O)c1c(O)c3c(c(O)c1C2=O)C[C@@](O)(C(=O)CO)C[C@@H]3O[C@H]1C[C@H](N)[C@H](O)[C@H](C)O1` [Doxorubicin]: the “SI (selectivity index)” value in the test with prostate cancer (PC3) (IC50 for WI38 / IC50 for PC3) is recorded as 0.4; in test [1] (IC50 for WI38 / IC50 for T47D), 2.8; in the test on leukemia (U937) (IC50 for WI38 / IC50 for U937), 0.4; in the test on osteosarcoma (MG63) (IC50 for WI38 / IC50 for MG63), 1.0; with breast cancer (MCF7) (IC50 for WI38 / IC50 for MCF7), 0.5; in the test with cervical cancer (HeLa) (IC50 for WI38 / IC50 for HeLa), 0.4. Besides, the concentration for half-maximal inhibition (IC50) in the test with prostate cancer (PC3) (PC3, MTT, 24 h) is 46.3 ± 0.2 µg/mL (≈ 85.2 µM); in test [1] (Homo sapiens, T47D, MTT, 24 h) it was 7 ± 0.1 µg/mL (≈ 12.9 µM); in the test with leukemia (U937) (Homo sapiens, U-937, U937, MTT, 24 h), 41.7 ± 0.9 µg/mL (≈ 76.7 µM); in test [2], 20.1 ± 0.1 µg/mL (≈ 37 µM); in the test with osteosarcoma (MG63) (Homo sapiens, MG-63, MG63, MTT, 24 h), 19 ± 0.3 µg/mL (≈ 35 µM); in the test with breast cancer (MCF7) (MCF7, MTT, 24 h) it was 37.4 ± 0.1 µg/mL (≈ 68.8 µM). Further, in the test with cervical cancer (HeLa) (Homo sapiens, HeLa, MTT, 24 h), the IC50 was 41.9 ± 0.1 µg/mL (≈ 77.1 µM). In addition, the cell morphology entry with MCF7 was “rounded and shrunk cells”; in the test on T47D, “rounded and shrunk cells”; in the test with HeLa, “rounded and shrunk cells”; with PC3, “rounded and shrunk cells”; with MG63, “rounded and shrunk cells”.

`O=C1O[C@H]([C@@H](O)CO)C(O)=C1O` [Ascorbic Acid, Ascorbic acid]: the “DPPH Scavenging%” value in test [3] (Conc. 1.95 µg/mL) is reported as 41.8 ± 0.5%; in test [3] (Conc. 3.9 µg/mL), 45.9 ± 0.1%; in test [3] (Conc. 7.8125 µg/mL) it was 56.2 ± 0.2%; in test [3] (Conc. 15.625 µg/mL), 64.2 ± 0.3%; in test [3] (Conc. 31.25 µg/mL), 71.2 ± 0.2%; in test [3] (Conc. 62.5 µg/mL), 77.9 ± 0.3%. In addition, the “DPPH Scavenging%” value is given as 86.4 ± 0.3% in test [3] (Conc. 125 µg/mL), 92.7 ± 0.2% in [3] (Conc. 250 µg/mL), 94.5 ± 0.2% in test [3] (Conc. 500 µg/mL) and 97.1 ± 0.1% in test [3] (Conc. 1000 µg/mL). Besides, the “IC50 of DPPH radical scavenging” value in test [3] (mean ± standard deviation) is “^a IC50 = 4.8 ± 0.1 μg/mL”.

With `Cc1c(C)c2c(c(C)c1O)CCC(C)(C(=O)O)O2` (centres unmarked) [Trolox], the “ABTS Scavenging%” value was 9.9 ± 0.3% in test [4] (Conc. 0.6 µg/mL); 18.6 ± 0.4% in test [4] (Conc. 1.3 µg/mL); 49.6 ± 2.6% in [4] (Conc. 3.8 µg/mL); 83.6 ± 1.9% in [4] (Conc. 6.2 µg/mL); 92.6 ± 0.2% in test [4] (Conc. 8.8 µg/mL). Moreover, the “IC50 of ABTS radical scavenging” value in test [4] (mean ± standard deviation) was “^a IC50 = 2.9 ± 0.1 μg/mL”.

The values above are taken from paper PMC10180520, “Phytochemical Analysis and Profiling of Antioxidants and Anticancer Compounds from Tephrosia purpurea (L.) subsp. apollinea Family Fabaceae” (Molecules, 2023).
